Measured values taken from patent US7446199B2, “Compositions useful as inhibitors of protein kinases” (Vertex Pharmaceuticals Incorporated, priority 2003, dated 2008).

Tests used:
c-Met = c-Met (Homo sapiens, UniProt P08581); test: Ki determination for the inhibition of c-Met, coupled enzyme system; assay type: biochemical; conditions: 200 μM ATP, 10 μM polyGluTyr, 80 nM c-Met, 30° C.
Summary of the method: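 Coupled pyruvate kinase/lactate dehydrogenase NADH assay with 80 nM c-Met, 200 μM ATP, 10 μM polyGluTyr in pH 7.5 HEPES, 1.5% DMSO at 30° C. Compound (0.006–12.5 μM final, 12-point) preincubated 10 min; ATP started reaction, rates read over 10 min; Ki derived from rate versus inhibitor concentration.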

FLT-3 = biological target: T1, FLT-3 (Homo sapiens, UniProt P36888); test: Inhibition of FLT-3, radiometric filter-binding assay; assay type: biochemical; conditions: 90 μM ATP, 0.5 mg/mL pE4Y, room temperature
T1 construct: 0.02% BSA and 3 nM FLT-3
T1 sequence (P36888 27-993): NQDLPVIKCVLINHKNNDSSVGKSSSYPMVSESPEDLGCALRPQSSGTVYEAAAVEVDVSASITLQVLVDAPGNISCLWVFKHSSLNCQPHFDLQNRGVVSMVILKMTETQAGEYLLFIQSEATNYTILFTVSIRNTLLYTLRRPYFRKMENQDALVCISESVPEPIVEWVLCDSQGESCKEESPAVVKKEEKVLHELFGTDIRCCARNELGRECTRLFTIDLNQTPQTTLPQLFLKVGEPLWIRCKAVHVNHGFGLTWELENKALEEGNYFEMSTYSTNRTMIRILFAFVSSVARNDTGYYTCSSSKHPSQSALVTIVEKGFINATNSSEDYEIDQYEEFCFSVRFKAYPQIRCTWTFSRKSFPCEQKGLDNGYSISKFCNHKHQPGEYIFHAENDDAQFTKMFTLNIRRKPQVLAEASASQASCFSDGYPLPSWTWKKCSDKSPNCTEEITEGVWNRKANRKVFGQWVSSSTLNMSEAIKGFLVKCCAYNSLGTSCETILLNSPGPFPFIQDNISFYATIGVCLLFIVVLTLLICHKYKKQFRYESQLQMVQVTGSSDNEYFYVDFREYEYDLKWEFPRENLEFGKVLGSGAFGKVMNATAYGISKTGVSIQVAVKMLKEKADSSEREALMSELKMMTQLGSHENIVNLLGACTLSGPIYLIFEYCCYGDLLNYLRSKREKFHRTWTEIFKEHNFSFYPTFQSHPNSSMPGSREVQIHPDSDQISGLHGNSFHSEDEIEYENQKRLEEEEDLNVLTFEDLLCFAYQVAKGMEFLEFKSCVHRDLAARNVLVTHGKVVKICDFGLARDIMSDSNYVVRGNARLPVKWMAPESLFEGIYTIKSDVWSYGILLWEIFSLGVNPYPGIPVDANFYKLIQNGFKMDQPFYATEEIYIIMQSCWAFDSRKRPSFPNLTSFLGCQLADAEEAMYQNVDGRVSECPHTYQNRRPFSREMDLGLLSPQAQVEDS
Summary of the method: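 Radiometric filter-binding assay of FLT-3 (3 nM in Solution 2; final conc not stated) phosphorylating poly(Glu,Tyr) 4:1 (0.5 mg/mL) with 90 μM ATP plus [γ-33P]ATP, in HEPES pH 7.5, MgCl2, NaCl, DTT, BSA, 2.5% DMSO. 12-point titration, typically 0.01–5 μM, 20 min at room temperature; TCA-stopped, filtered, scintillation-counted; IC50 or Ki fitted.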

c-Met, sequence (P08581 25-1390): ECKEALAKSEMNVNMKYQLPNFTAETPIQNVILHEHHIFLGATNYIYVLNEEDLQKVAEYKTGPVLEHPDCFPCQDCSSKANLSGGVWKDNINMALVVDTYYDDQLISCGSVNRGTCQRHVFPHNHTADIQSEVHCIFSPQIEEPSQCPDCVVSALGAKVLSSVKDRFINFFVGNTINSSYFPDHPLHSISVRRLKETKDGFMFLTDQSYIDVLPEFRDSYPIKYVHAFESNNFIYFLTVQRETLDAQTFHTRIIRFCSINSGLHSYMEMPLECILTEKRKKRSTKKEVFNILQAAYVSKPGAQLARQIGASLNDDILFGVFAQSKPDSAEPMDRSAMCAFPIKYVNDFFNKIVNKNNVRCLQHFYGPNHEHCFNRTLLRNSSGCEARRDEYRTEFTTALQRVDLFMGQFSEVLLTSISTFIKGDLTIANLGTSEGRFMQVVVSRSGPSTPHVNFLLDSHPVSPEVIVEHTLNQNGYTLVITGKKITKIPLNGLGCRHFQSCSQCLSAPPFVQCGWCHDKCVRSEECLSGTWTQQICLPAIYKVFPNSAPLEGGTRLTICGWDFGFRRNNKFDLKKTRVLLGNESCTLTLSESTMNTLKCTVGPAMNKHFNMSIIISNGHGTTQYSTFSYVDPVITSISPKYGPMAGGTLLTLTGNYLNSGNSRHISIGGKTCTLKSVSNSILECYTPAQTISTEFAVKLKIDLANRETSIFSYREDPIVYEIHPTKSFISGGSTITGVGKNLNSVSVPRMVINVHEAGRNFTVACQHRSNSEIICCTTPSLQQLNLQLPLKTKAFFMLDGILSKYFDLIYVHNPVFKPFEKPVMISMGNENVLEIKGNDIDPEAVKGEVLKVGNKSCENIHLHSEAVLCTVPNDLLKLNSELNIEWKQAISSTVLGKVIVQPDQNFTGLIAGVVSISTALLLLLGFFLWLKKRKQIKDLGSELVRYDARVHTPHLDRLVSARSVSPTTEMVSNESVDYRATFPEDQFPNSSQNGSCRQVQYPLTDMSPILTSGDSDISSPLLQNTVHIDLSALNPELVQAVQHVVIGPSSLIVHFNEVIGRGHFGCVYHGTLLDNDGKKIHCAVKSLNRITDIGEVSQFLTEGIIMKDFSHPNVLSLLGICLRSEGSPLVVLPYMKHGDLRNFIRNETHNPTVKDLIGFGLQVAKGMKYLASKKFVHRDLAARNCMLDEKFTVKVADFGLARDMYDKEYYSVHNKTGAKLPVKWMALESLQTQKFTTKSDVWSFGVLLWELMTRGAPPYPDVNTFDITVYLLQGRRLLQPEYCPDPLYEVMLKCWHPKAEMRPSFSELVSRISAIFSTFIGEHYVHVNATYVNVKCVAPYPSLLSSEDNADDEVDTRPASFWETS

SMILES | Ki (c-Met) [nM] | Ki (FLT-3) [nM]
CN1CCN(C(=O)[C@H]2C[C@@H]2c2cnc3[nH]cc(-c4oncc4-c4cccc(F)c4F)c3c2)CC1 (relative stereo) [Compound 142, trans-(2-{3-[4-(2,3-Difluoro-phenyl)-isoxazol-5-yl]-1H-pyrrolo[2,3-b]pyridin-5-yl}-cyclopropyl)-(4-methyl-piperazin-1-yl)-methanone] | < 200 | < 200
Fc1cccc(-c2cnoc2-c2n[nH]c3ncccc23)c1F [Compound 31, 3-(4-(2,3-difluorophenyl)isoxazol-5-yl)-1H-pyrazolo[3,4-b]pyridine] | 200 to 1000 | 1000 to 12500
Fc1cccc(-c2cnoc2-c2c[nH]c3ccc(-c4ccncc4)cc23)c1F [Compound 34, 3-[4-(2,3-Difluoro-phenyl)-isoxazol-5-yl]-5-pyridin-4-yl-1H-indole] | – | 1000 to 12500
c1ccc(-c2cnoc2-c2c[nH]c3ncccc23)cc1 [Compound 35, 3-[4-Phenyl-isoxazol-5-yl]-1H-pyrrolo[2,3-b]pyridine] | 200 to 1000 | –
Fc1cc(F)c(F)c(-c2cnoc2-c2c[nH]c3ncccc23)c1 [Compound 39, 3-[4-(2,3,5-Trifluoro-phenyl)-isoxazol-5-yl]-1H-pyrrolo [2,3-b]pyridine] | 200 to 1000 | 1000 to 12500
Fc1ccc(F)c(-c2cnoc2-c2c[nH]c3ncccc23)c1F [Compound 41, 3-[4-(2,3,6-Trifluoro-phenyl)-isoxazol-5-yl]-1H-pyrrolo [2,3-b]pyridine] | 200 to 1000 | 1000 to 12500
Fc1cccc(-c2cnoc2-c2c[nH]c3ncc(Cl)cc23)c1F [Compound 44, 3-[4-(2,3-Difluoro-phenyl)-isoxazol-5-yl]-5-chloro-1H-pyrrolo[2,3-b]pyridine] | < 200 | 1000 to 12500
Fc1cnc2[nH]cc(-c3oncc3-c3cccc(F)c3F)c2c1 [Compound 45, 3-[4-(2,3-Difluoro-phenyl)-isoxazol-5-yl]-5-fluoro-1H-pyrrolo[2,3-b]pyridine] | 200 to 1000 | 1000 to 12500
Cc1cnc2[nH]cc(-c3oncc3-c3cccc(F)c3F)c2c1 [Compound 46, 3-[4-(2,3-Difluoro-phenyl)-isoxazol-5-yl]-5-methyl-1H-pyrrolo[2,3-b]pyridine] | < 200 | 200 to 1000
OCc1cnc2[nH]cc(-c3oncc3-c3cccc(F)c3F)c2c1 [Compound 55, {3-[4-(2,3-Difluoro-phenyl)-isoxazol-5-yl]-1H-pyrrolo[2,3-b]pyridin-5-yl}-methanol] | 200 to 1000 | 1000 to 12500
Fc1cccc(-c2cnoc2-c2c[nH]c3nc(Cl)c(-c4ccncc4)cc23)c1F [Compound 103, 6-Chloro-3-[4-(2,3-difluoro-phenyl)-isoxazol-5-yl]-5-pyridin-4-yl-1H-pyrrolo[2,3-b]pyridine] | 200 to 1000 | 200 to 1000
O=C(c1cnc2[nH]cc(-c3oncc3-c3cccc(F)c3F)c2c1)N1CCCC1 [Compound 104, {3-[4-(2,3-Difluoro-phenyl)-isoxazol-5-yl]-1H-pyrrolo[2,3-b]pyridin-5-yl}-pyrrolidin-1-yl-methanone] | 200 to 1000 | 1000 to 12500
COc1cnc2[nH]cc(-c3nncn3-c3cccc(F)c3F)c2c1 [Compound 108, 3-[4-(2,3-Difluoro-phenyl)-4H-[1,2,4]triazol-3-yl]-5-methoxy-1H-pyrrolo[2,3-b]pyridine] | 200 to 1000 | 1000 to 12500
Fc1cccc(-n2cnnc2-c2c[nH]c3ncc(-c4ccc(N5CCNCC5)nc4)cc23)c1F [Compound 111, 3-[4-(2,3-Difluoro-phenyl)-4H-[1,2,4]triazol-3-yl]-5-(6-piperazin-1-yl-pyridin-3-yl)-1H-pyrrolo[2,3-b]pyridine] | 200 to 1000 | 1000 to 12500
Fc1cccc(-c2cnoc2-c2c[nH]c3ncc(CCn4cncn4)cc23)c1F [Compound 132, 3-[4-(2,3-Difluoro-phenyl)-isoxazol-5-yl]-5-(2-[1,2,4]triazol-1-yl-ethyl)-1H-pyrrolo[2,3-b]pyridine] | 200 to 1000 | 200 to 1000
CN(C)C1CCC(c2cnc3[nH]cc(-c4oncc4-c4cccc(F)c4F)c3c2)CC1 (stereo not drawn) [Compound 141, (4-{3-[4-(2,3-Difluoro-phenyl)-isoxazol-5-yl]-1H-pyrrolo[2,3-b]pyridin-5-yl}-cyclohexyl)-dimethylamine] | < 200 | 200 to 1000
NC(=O)c1ccc(-c2cnc3[nH]cc(-c4oncc4-c4cccc(F)c4F)c3c2)cc1 [Compound 153] | < 200 | < 200
OB(O)c1cnc2[nH]cc(-c3oncc3-c3cccc(F)c3F)c2c1 [Compound 154] | < 200 | 200 to 1000
C[N+]1(C)CCN(c2ccc(-c3cnc4[nH]cc(-c5oncc5-c5cccc(F)c5F)c4c3)cc2)CC1 [Compound 155] | < 200 | < 200
